# Reference: patent publication US9604894B2, “Compounds from antrodia camphorate and their use in treatment of diabetes mellitus” (National Dong Hwa University, priority 2014, dated 2017)
# Entries after “also recorded” stand apart in the source; their conditions may differ.
# What was measured:
# C57 BL/6 mice = assay: Oral glucose tolerance test in S961-induced insulin resistance mice; assay type: in vivo, mouse; conditions: D-glucose 2 g/kg; for hypoglycemic efficacy, OGTT blood glucose AUC: S961 50 nmol/kg Bwt, enantiomer 50 mg/kg Bwt p.o., FIG. 7(B)
# Experimental: (§1) Animal experiments were approved by the National Dong-Hwa University Animal Ethics Committee and were used according to the “Guide for the Care and Use of Laboratory Animals” of National Dong-Hwa University. C57BL/6 mouse and Imprinting Control Region (ICR) mouse were obtained National Laboratory Animal Center (Taipei, Taiwan) and kept at controlled environmental conditions with room temperature (22±2° C.) and humidity (50±10%). The 12 h light (0600 am-1800 pm) and 12 h dark cycle was maintained throughout the study. Mice had free access to food and water and maintained on a standard laboratory diet (carbohydrates; 60%, proteins; 28%, lipids; 12%, vitamins; 3%).
# (§2) Mice were employed to this test after fasting 12 h. Mice were treated with D-glucose by oral gavage (2 g/kg, p.o.). At approximately 0, 30, 60, 90, and 120 min, blood was sampled by venipuncture from the tail vein for the determining blood glucose. Blood glucose was immediately determined by the glucose oxidase method using glucose analyzer (Accu-Chek, Roche).
# 8 weeks old male C57 BL/6 mice were employed to this test after fasting 12 h. To investigate the effect of natural compounds on the 5961 (insulin receptor antagonist, Novo-Nordisk, Denmark) induced hyperglycemia, mice was intraperitoneally injected (i.p.) S961 (50 nmol/kg Bwt) at 15 min prior to oral gavaged (p.o.) with antroquinonol (dissolved in PEG and EtoH, 50 mg/kg Bwt) and D-glucose (2 g/kg Bwt). At approximately 0, 30, 60, 90, and 120 min, blood was sampled by venipuncture from the tail vein for OGTT test.
# PKA protein level = assay: Glucagon like peptide-1 induced PKA protein level, Western blot in AR42J cells; assay type: cell-based, rat; conditions: 5 μM and 20 μM, with 1 nM GLP-1 or 1 nM exendin-4, 48 h, FIG. 4
# Experimental: Rat pancreas tumor cells (AR42J) were obtained from the Food Industry Research and Development Institute (FIRDI, Hsinchu, Taiwan). The cells were grown and maintained in DMEM (GIBCO) supplemented with 20% fetal bovine serum (FBS, GIBCO) and 1% penicillin streptomycin (GIBCO) and 2 mM of L-glutamin in a cell culture incubator with 5% CO2 at 37° C. Prior to the experiments, the cells were seeded and cultured for 16-24 h.
# (§3) After treatments, the cells were collected and washed twice in cold KRH buffer (containing 50 mM HEPES, 137 mM NaCl, 4.8 mM KCl, 1.85 mM CaCl2, 1.3 mM MgSO4), and then lysed in ice-cold RIPA buffer (containing 50 mM Tris-HCl, pH 8.0, 150 mM NaCl, 5 mM NaF, 1% NP40, 1 mM sodium orthovanadate, 0.5% sodium deoxycholate, 0.1% sodium dodecyl sulphate (SDS), protease inhibitors, and phosphatase inhibitors (DE-68305, Roche, Mannheim, Germany)) and incubated at 4° C. for 60 min. After centrifugation of the cells at 12,000×g at 4° C. for 30 min, the supernatant was kept and quantified by Bradford protein assay (Bio-Rad, Hercules, Calif., USA). […] The signals were monitored using Western Lightning™ Plus-ECL (Perkin Elmer Life Sciences) and the PVDF membrane was exposed to Luminescent image analyzer (LAS)-3000 (Fujifilm, Minato, Tokyo, Japan). The acquired data were analyzed and compared the difference among various treatments. […]
# [1] = target: T1, Dipeptidyl peptidase-4 (DPP4) (Homo sapiens, UniProt P27487); assay: DPP4 enzyme activity (DPPIV/CD26 Assay Kit); assay type: biochemical; conditions: 100 μM, 30 min at RT; FIG. 2
# T1 construct: purchased Enzo BML-AK498
# T1 sequence (P27487 whole entry): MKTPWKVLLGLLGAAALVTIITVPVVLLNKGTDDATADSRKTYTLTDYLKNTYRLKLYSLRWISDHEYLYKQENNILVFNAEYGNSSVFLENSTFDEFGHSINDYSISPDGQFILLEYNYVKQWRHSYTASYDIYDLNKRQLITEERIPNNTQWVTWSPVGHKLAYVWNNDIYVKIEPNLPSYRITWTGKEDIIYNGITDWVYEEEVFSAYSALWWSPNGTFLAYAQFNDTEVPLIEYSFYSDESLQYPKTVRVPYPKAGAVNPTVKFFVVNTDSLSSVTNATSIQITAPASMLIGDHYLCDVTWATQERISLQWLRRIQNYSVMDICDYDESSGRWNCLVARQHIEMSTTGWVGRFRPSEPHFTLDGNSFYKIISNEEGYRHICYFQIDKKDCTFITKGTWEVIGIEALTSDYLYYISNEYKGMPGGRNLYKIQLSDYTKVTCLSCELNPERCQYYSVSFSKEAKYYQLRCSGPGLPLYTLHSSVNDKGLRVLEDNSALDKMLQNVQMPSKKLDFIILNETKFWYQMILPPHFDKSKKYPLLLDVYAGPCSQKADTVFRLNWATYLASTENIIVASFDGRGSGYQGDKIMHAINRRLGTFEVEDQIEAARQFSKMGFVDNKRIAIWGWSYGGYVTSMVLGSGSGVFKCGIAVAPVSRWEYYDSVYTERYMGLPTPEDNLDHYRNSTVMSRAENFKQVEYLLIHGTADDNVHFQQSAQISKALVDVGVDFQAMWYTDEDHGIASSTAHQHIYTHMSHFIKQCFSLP
# Experimental: Dipeptidyl peptidase-4 (DPP4), also known as adenosine deaminase complexing protein 2 or CD26 (cluster of differentiation 26), is […]. DPP4 enzyme activity was measured by a DPPIV/CD26 Assay Kit (BML-AK498, Enzo, N.Y., USA). This assay is based on the cleavage of the p-nitroaniline (pNA) from the chromogenic substrate (H-Gly-Pro-pNA) to increase the absorbance at 405 nm. Firstly 50 μL of assay buffer (50 mM Glycine, pH 8.7, 1 mM EDTA) per will was added into the 96-well clear microplate, and then 20 μL of DPP4 enzyme (13 μU/μL), 20 μL of tested inhibitors, 100 μM of antroquinonol or known clinical drug sitagliptin, and finally 10 μL of pNA substrate were added to each well sequentially. After an incubation of reaction mixture at room temperature (RT) for 30 min, the absorbance of each sample was read at 405 nm by the ELISA plate reader (Thermo Labsystems, Opsys MR, Thermo fisher scientific).
# DIO ICR mice [2] = assay: Short term glucose tolerance (OGTT) in diet-induced obesity (DIO) ICR mice; assay type: in vivo, mouse; conditions: antroquinonol 25 mg/kg Bwt versus Sitagliptin 20 mg/kg Bwt, 15 min before D-glucose 2 g/kg, FIG. 8
# Experimental: as §1, §2
# (§4) 8 weeks old ICR male mice were induced with high fat die and 60% fructose water for 10 weeks. […] Blood glucose was immediately determined by the glucose oxidase method using glucose analyzer (Accu-Chek, Roche), when blood sugar was sustained at higher level than 200 mg/dl after 120 min oral glucose that defined high blood sugar. […]
# GLUT4 translocation = assay: Measurement of GLUT4 translocation in differentiated C2C12 cells; assay type: cell-based, mouse; conditions: FIG. 5(A)
# Experimental: (§5) Mouse muscle myoblast cells (C2C12) were obtained from the Food Industry Research and Development Institute (FIRDI, Hsinchu, Taiwan). The cells were grown and maintained in Dulbecco's Modified Eagle's Medium containing high level of glucose (DMEM-high glucose; GIBCO, Carlsbad, Calif., USA) supplemented with 10% fetal bovine serum (FBS, GIBCO) and 1% penicillin streptomycin (GIBCO) in a cell culture incubator with 5% CO2 at 37° C. Prior to experiment, the cells were seeded and cultured at a density of 8×10^3 cells per well in 96-well plates or 2.5×10^5 cells per well in 6-well plates. After the myoblasts achieved 80% confluence, the cells were incubated for 4 days in DMEM—high glucose supplemented with 1% FBS and 1% horse serum induced differentiation to myotubes.
# C2C12 was fully differentiated with DMEM supplemented with 1% FBS and 1% horse serum for 4 days. The cells were washed twice with PBS containing 0.1% BSA and subsequently incubated in PBS with or without the treatment with 185 μM insulin (Ins), 16 mM metformin (Met), or 50, 100, and 150 μM of antroquinonol (Ant) for 55 min (n=5 in each group) respectively, and then placed on ice and immediately fixed with 1% glutaraldehyde in PBS at RT for 10 min. […] HRP activity was determined by measuring the absorbance at 450 nm with a spectrophotometer (EnSpire 2300 Multilabel Reader, Perkin Elmer, Waltham, Mass., USA). […]
# DIO ICR mice [3] = assay: Long term glucose tolerance (OGTT) in diet-induced obesity (DIO) ICR mice; assay type: in vivo, mouse; conditions: antroquinonol 25 mg/kg Bwt versus Sitagliptin 10 mg/kg Bwt, q.o.d. for 4 weeks, FIG. 9
# Experimental: as §1, §2, §4
# [4] = tested on: AMPK Thr172 phosphorylation; assay: AMPK Thr172 phosphorylation, Western blot in differentiated C2C12 cells; assay type: cell-based, mouse; conditions: C2C12, 37° C., 30 min; insulin 100 nM, metformin 16 mM, antroquinonol 25 μM; FIG. 3(B)
# Experimental: (§6) FIG. 3(B) provides the results of AMPK Thr172 phosphorylation induced by insulin, metformin (Met) and antroquinonol (Ant); wherein the differentiated C2C12 cells were incubated with 100 nM of insulin, 16 mM of metformin (Met), or 25 μM of antroquinonol (Ant) at 37° C. for 30 min, and then the cell lysates were separated by SDS-PAGE and blotted for phospho-AMPK Thr172; wherein the data were expressed as means with standard errors of mean (mean±SEM), and different letters represent the significant differences (p<0.05) among the various treatments.
# Mouse muscle myoblast cells (C2C12) were obtained from the Food Industry Research and Development Institute (FIRDI, Hsinchu, Taiwan). […]
# After treatments, the cells were collected and washed twice in cold KRH buffer (containing 50 mM HEPES, 137 mM NaCl, 4.8 mM KCl, 1.85 mM CaCl2, 1.3 mM MgSO4), and then lysed in ice-cold RIPA buffer (containing 50 mM Tris-HCl, pH 8.0, 150 mM NaCl, 5 mM NaF, 1% NP40, 1 mM sodium orthovanadate, 0.5% sodium deoxycholate, 0.1% sodium dodecyl sulphate (SDS), protease inhibitors, and phosphatase inhibitors (DE-68305, Roche, Mannheim, Germany)) and incubated at 4° C. for 60 min. After centrifugation of the cells at 12,000×g at 4° C. for 30 min, the supernatant was kept and quantified by Bradford protein assay (Bio-Rad, Hercules, Calif., USA). […]
# [5] = tested on: AKT Thr308 phosphorylation; assay: AKT Thr308 phosphorylation, Western blot in differentiated C2C12 cells; assay type: cell-based, mouse; conditions: C2C12, 37° C., 30 min; insulin 100 nM, metformin 16 mM, antroquinonol 25 μM; FIG. 3(A)
# Experimental: as §6, with “3(A)” for “3(B)”, “the AKT Thr308” for “AMPK Thr172”, “phospho-AKT Thr308;” for “phospho-AMPK Thr172;”
# as §5, with “After the myoblasts achieved 80% confluence, the cells were incubated for 4 days in DMEM—high glucose supplemented with 1% FBS and 1% horse serum induced differentiation to myotubes.” left out
# as §3
Compound,"hypoglycemic efficacy, OGTT blood glucose AUC (C57 BL/6 mice)",AMPK Thr172 phosphorylation [4],AKT Thr308 phosphorylation [5],also measured
COC1=C(OC)[C@@H](O)[C@@H](C/C=C(\C)CC/C=C(\C)CCC=C(C)C)[C@H](C)C1=O [(−)-antroquinonol],had the hypoglycemic efficacy,–,–,–
COC1=C(OC)[C@H](O)[C@H](C/C=C(\C)CC/C=C(\C)CCC=C(C)C)[C@@H](C)C1=O [antroquinonol],–,significantly better efficacy on the phosphorylation of AMPK Thr172 than insulin and metformin,not,"PKA protein level (PKA protein level): PKA protein level was expressed; inhibitory rate of DPP4 activity (compared to the control without treatment) [1]: up to 50%; glucose tolerance, OGTT blood glucose AUC, short term (DIO ICR mice [2]): effects similar to Sitagliptin; hypoglycemic efficacy, OGTT blood glucose AUC (ratio to the control) (C57 BL/6 mice; S961-treated mice, antroquinonol 50 mg/kg Bwt p.o., metformin 100 mg/kg as positive control, FIG. 7(A)): had the hypoglycemic efficacy in the condition of insulin resistance through the oral glucose tolerance test (OGTT), similar to Metformin; GLUT4 translocation, comparison with metformin (GLUT4 translocation; C2C12, 100 μM of antroquinonol): equivalent to 16 mM metformin; GLUT4 translocation (GLUT4 translocation; C2C12, antroquinonol 50, 100, 150 μM versus insulin 185 μM and metformin 16 mM, 55 min): good effect on GLUT4 translocation similar to insulin (Ins), and which is even better than metformin (Met); also recorded: enhanced GLUT4 translocation with dose-dependent manner; glucose tolerance, OGTT blood glucose AUC, long term (DIO ICR mice [3]): effects similar to Sitagliptin"
"CN(C)C(=N)N=C(N)N [metformin, reference compound]",–,provided an effect in action to the phosphorylation of AMPK Thr172,not,–
(+)-antroquinonol,had the hypoglycemic efficacy,–,–,–
insulin,–,–,induced insulin signaling pathway at the phosphorylation of AKT Thr308,–
